Set-up in all cases: species or system human
A short description of assay [1]: Repair of bleached hair: tensile elongation forces by Dia-stron Tensile Tester MTT 670. Here is the method: A tress section of human Euro-Natural hair, remis, double-drawn with a length of 23 cm and a width of 2.0 cm with a weight of 2.0 g and dark-brown color was wetted under a tap of running water over the course of 10 seconds. 8 g of a 30% strength aqueous hydrogen peroxide solution were mixed with 4 g of Basler Blond Claire bleaching powder, 2 mL of a 25% strength aqueous ammonia solution were added, and combined again and 8 g of the resulting paste were massaged into the tress section with the help of a comb and the protected hands. After a contact time of 30 minutes at room temperature, the tress section was washed for 2 minutes under running tap water at ca. 35° C. and then dried by means of an electronic hair dryer for 3 minutes while combing at the same time. The entire procedure was repeated once starting from the wetting of the tress section.
(§1) Afterwards, per treatment method 40 hairs were removed from the tress section and in each case the middle section of a hair with a length of 3 cm was crimped between two brass sleeves with plastic coating on the inside. The average area of each individual hair was measured using a Dia-stron FDAS760 fibre dimensional system and UvWin PC application software. The hair samples were then transferred to the sample cassette of a Dia-stron Tensile Tester MTT 670 and admixed in each case with demineralized water adjusted to pH 7 using citric acid. A measurement of the individual hair strands with the Single Fiber Method (Extension 20%, Rate 20 mm/min, Gauge Force 2, Maximum Force 200, Break Threshold 5, Sample Size 30 mm) was started. The hair samples were then removed from the sample cassette and covered with demineralized water in a plastic bowl.
For the treatment with hair conditioner, the water was removed after 30 minutes and the hair samples were covered with hair conditioner. After a contact time of 30 minutes, each individual hair sample was washed under a stream of running water at ca. 35° C. for 6 seconds. The hair samples were dried overnight at 22° C. and 50% relative atmospheric humidity.
For the treatment with shampoo, the water was removed after 30 minutes and the hair samples were covered with shampoo. After a contact time of 5 minutes, each individual hair sample was washed under a stream of running water at ca. 35° C. for 6 seconds. The hair samples were briefly dried by means of an electronic hair dryer and the shampoo treatment was repeated four times.
After the particular treatment, the measurement of the individual hair samples starting with the transfer to the sample cassette of the Dia-stron Tensile Tester MTT 670 was repeated.
The evaluation of the data takes place by reference to the parameters modulus of elasticity (E modulus), Load and/or Work. If a hair is pulled, the elongation is initially proportional to the applied force (Hooke's range). The modulus of elasticity describes the applied force per elongation (in Newton/mm^2) in the Hooke's range and therefore represents the tensile strength of a hair fibre. As soon as the hair has been elongated to a length of approximately 2%, it further deforms very rapidly up to ca. 25-30% of its original length, where the increase in the force required for this is minimal (Yield range). The parameter Load corresponds to the force (in Newtons) which is required to elongate the hair up to 15% and the parameter Work indicates the work required to elongate the hair from 0-15% (in Joules).

Assay [2] in a line: Hair fatigue breakage of bleached hair, Dia-stron Automatic Cyclic Tester (CYC800), Weibull analysis. As to conditions: simple hair conditioner (Table 3), 2.0%; Constant Stress method; vehicle 14 190 cycles; FIG. 8. The protocol:
A tress section of human Euro-Natural hair, remis, double-drawn with a length of 23 cm and a width of 2.0 cm with a weight of 2.0 g and dark-brown color was wetted under a tap of running water over the course of 10 seconds. 8 g of a 30% strength aqueous hydrogen peroxide solution were mixed with 4 g of Basler Blond Claire bleaching powder, 2 mL of a 25% strength aqueous ammonia solution were added, and combined again and 8 g of the resulting paste were massaged into the tress section with the help of a comb and the protected hands. […]
Afterwards, per treatment method 40 hairs were removed from the tress section and in each case the middle section of a hair with a length of 3 cm was crimped between two brass sleeves with plastic coating on the inside. The average area of each individual hair was measured using a Dia-stron FDAS760 fibre dimensional system and UvWin PC application software. […]
In order to measure the hair fatigue breakage, the hair samples were transferred to the sample cassette of a Dia-stron Automatic Cyclic Tester (CYC800) and climatized at 22° C. and 50-55% rel. atmospheric humidity. […] The characteristic life span a of a hair fibre is calculated by means of Weibull analysis. […]

Assay [3] in a line: Repair of alkaline smoothed hair: tensile elongation forces by Tensile Tester. The note with it: simple hair conditioner (Table 8); 0.5% DD/LL 1:1, 0.5% L-methionine or 2.0% wheat protein (25% active); vehicle 0.43 mN; FIG. 9. The protocol: as §1
(§2) For the treatment with hair conditioner, the water was removed after 30 minutes and the hair samples were covered with hair conditioner. After a contact time of 30 minutes, each individual hair sample was washed under a stream of running water at ca. 35° C. for 6 seconds. The hair samples were dried overnight at 22° C. and 50% relative atmospheric humidity. […]
(§3) Afterwards, 40 hairs were removed from the tress section and measured as described in Example 1. […]

Assay [4] can be described thus: Repair of reductively smoothed hair: tensile elongation forces by Tensile Tester. The note with it: simple hair conditioner (Table 9); 0.5% DD/LL 1:1 or 2.0% wheat protein (25% active); FIG. 10. Here is the method: as §1, §2, §3
Assay [5] in a line: Protection of hair against thermal stress (smoothing iron): hair fatigue breakage, Automatic Cyclic Tester. The note with it: FIG. 11. Here is the method: A tress section of human Euro-Natural hair, remis, double-drawn with a length of 23 cm and a width of 2.0 cm with a weight of 2.0 g and dark-brown color was wetted under a tap of running water over the course of 10 seconds. Then, 2 mL of shampoo (28.6% Texapon NSO in dist. water) were massaged into the hair for 30 seconds, washed out for a further 30 seconds under running tap water at ca. 35° C., and the hair tress was squeezed between two fingers and combed six times. The hair tress was dipped for 1 minute in 300 mL of active ingredient solution (active ingredient, demin. water, lactic acid, pH 5.5), squeezed between two fingers and rinsed for 30 seconds under running tap water at ca. 35° C. and combed. […]
Afterwards, 50 hairs were removed from the tress section and in each case the middle section of a hair with a length of 3 cm was crimped between two brass sleeves with plastic coating on the inside. The average area of each individual hair was measured using a Dia-stron FDAS760 fibre dimensional system and UvWin PC application software.
The hair samples were then transferred to the sample cassette of a Dia-stron Automatic Cyclic Tester (CYC800) and climatized at 22° C. and 50-55% rel. atmospheric humidity. […] The probability of survival and the characteristic life span a of a hair fibre were calculated by means of Weibull analysis.

A short description of assay [6]: Protection of hair against thermal stress (smoothing iron): denaturation temperature by differential scanning calorimetry. The note with it: preventative treatment with active ingredient solution pH 5.5; vehicle 137.9° C.; FIG. 12. The protocol:
A tress section of human Euro-Natural hair, remis, double-drawn with a length of 23 cm and a width of 2.0 cm with a weight of 2.0 g and dark-brown color was wetted under a tap of running water over the course of 10 seconds. Then, 2 mL of shampoo (28.6% Texapon NSO in dist. water) were massaged into the hair for 30 seconds, washed out for a further 30 seconds under running tap water at ca. 35° C., and the hair tress was squeezed between two fingers and combed six times. The hair tress was dipped for 1 minute in 300 mL of active ingredient solution (active ingredient, demin. water, lactic acid, pH 5.5), squeezed between two fingers and rinsed for 30 seconds under running tap water at ca. 35° C. and combed. The hair was dried using an electronic hair dryer for 3 minutes with simultaneous combing and then stored overnight in a climatically controlled chamber (37° C., 50% rel. atmospheric humidity).
The tress section was drawn four times in each case for 30 seconds through a smoothing iron (˜210° C.), which was pressed onto the tress by means of a 630 g weight. This treatment was repeated a total of five times from the wetting of the hair and shampoo treatment (in total 20 draws through the smoothing iron). […]
(In DSC, transitions show as peaks or steps in heat flow.)

Consider `CSCCC(N)C(=O)NC(CCSC)C(=O)O` (racemic) [DD/LL/LD/DL-methionyl-methionine], for which the “improvement of Load at 15% elongation (Load 15%)” value in assay [1] (expanded hair conditioner (Table 4), 1.0% DD/LL/LD/DL 35:35:65:65 or 4.0% wheat protein (25% active), vehicle 1.28 mN, FIG. 5) was 4.85 mN; in assay [1] (shampoo (Table 5), 1.00% DD/LL/LD/DL 35:35:65:65, contact 5 minutes, five treatments, vehicle 0.46 mN, FIG. 7) it was 1.33 mN; in assay [1] (simple hair conditioner (Table 3), 2.0% active, DD/LL/LD/DL = 1:1:1:1, contact 30 minutes, vehicle 2.65 mN, FIG. 3), 4.14 mN. Besides, the “improvement of Work up to 15% elongation (Work 15%)” value in assay [1] (expanded hair conditioner (Table 4), 1.0% DD/LL/LD/DL 35:35:65:65 or 4.0% wheat protein (25% active), vehicle 3.51 μJ, FIG. 6) turned out to be 18.2 µJ; in assay [1] (shampoo (Table 5), 1.00% DD/LL/LD/DL 35:35:65:65, contact 5 minutes, five treatments, vehicle 2.46 μJ), 2.58 µJ; in assay [1] (simple hair conditioner (Table 3), 2.0% active, DD/LL/LD/DL = 1:1:1:1, contact 30 minutes, vehicle 11.0 μJ, FIG. 4), 19.4 µJ. In addition, the “characteristic life span α: number of cycles in which 63.2% of all hair fibres tear” value in assay [2] is 33 980 cycles.

With `CSCCC(N)C(=O)NC(CCSC)C(=O)O` (centres unmarked) [DD/LL-methionyl-methionine], the “improvement of Load at 15% elongation (Load 15%)” value in assay [3] came out at 3.76 mN. Further, the “improvement of Load at 15% elongation (Load 15%) relative to vehicle” value in assay [4] stood at 0.96 mN. Moreover, in assay [5] (preventative treatment with active ingredient solution pH 5.5, DD/LL weight ratio 1:1, vehicle 5500), the “number of cycles at which 20% of the hair remain intact” value is on record as 10 000 cycles. Besides, the “number of cycles at which 10% of the hair did not tear” value in assay [5] (preventative treatment with active ingredient solution pH 5.5, vehicle 8000) is reported as 22 000 cycles. In addition, in assay [6], the “hair denaturation temperature (TD)” value stood at 139.9 °C.

With `CSCC[C@H](N)C(=O)O` [L-methionine], the “repair effect (Load 15%, Work 15%) compared with vehicle hair conditioner, in words” value in assay [1] (simple hair conditioner (Table 3), 2.0% raw material, FIGS. 3 and 4) is recorded as “could be further increased neither”. For the same compound, the “improvement of Load at 15% elongation (Load 15%)” value in assay [3] is 2.73 mN.
